Columns and labels:
Details in all cases: 72 h
[1] = tested on: HepG2; test: relative viability EC50 (midpoint between 100% and the lowest measured viability); higher = less toxic
[2] = tested on: Vero E6; test: as above
[3] = tested on: HepG2; test: drug sensitivity score (DSS) for viability; higher = more toxic; extreme values may be limits of the assay
[4] = tested on: U2OS; test: as above
[5] = tested on: Calu-3; test: as above
[6] = tested on: Vero E6; test: as above
[7] = tested on: Caco-2; test: as above
[8] = tested on: HepG2; test: cell viability relative to DMSO; higher = less toxic
[9] = tested on: U2OS; test: as above
[10] = tested on: Calu-3; test: as above
[11] = tested on: Vero E6; test: as above
[12] = tested on: Caco-2; test: as above
[13] = tested on: U2OS; test: relative viability EC50 (midpoint between 100% and the lowest measured viability); higher = less toxic
[14] = tested on: Calu-3; test: as above
[15] = tested on: Caco-2; test: as above

| Compound | relative viability EC50 [1] | relative viability EC50 [2] | drug sensitivity score [3] | drug sensitivity score [4] | drug sensitivity score [5] | drug sensitivity score [6] | drug sensitivity score [7] | cell viability ([8]; 1 nM) | cell viability ([8]; 10 nM) | cell viability ([8]; 100 nM) | cell viability ([8]; 1000 nM) | cell viability ([8]; 10000 nM) | cell viability ([9]; 1 nM) | cell viability ([9]; 10 nM) | cell viability ([9]; 100 nM) | cell viability ([9]; 1000 nM) | cell viability ([9]; 10000 nM) | cell viability ([10]; 1 nM) | cell viability ([10]; 10 nM) | cell viability ([10]; 100 nM) | cell viability ([10]; 1000 nM) | cell viability ([10]; 10000 nM) | cell viability ([11]; 1 nM) | cell viability ([11]; 10 nM) | cell viability ([11]; 100 nM) | cell viability ([11]; 1000 nM) | cell viability ([11]; 10000 nM) | cell viability ([12]; 1 nM) | cell viability ([12]; 10 nM) | cell viability ([12]; 100 nM) | cell viability ([12]; 1000 nM) | cell viability ([12]; 10000 nM) | relative viability EC50 [13] | relative viability EC50 [14] | relative viability EC50 [15] |
| --- | --- | --- | --- | --- | --- | --- | --- | --- | --- | --- | --- | --- | --- | --- | --- | --- | --- | --- | --- | --- | --- | --- | --- | --- | --- | --- | --- | --- | --- | --- | --- | --- | --- | --- | --- |
| CC(C)(C)C[C@@H]1N[C@@H](C(=O)N[C@H]2CC[C@H](O)CC2)[C@H](c2cccc(Cl)c2F)[C@]12C(=O)Nc1cc(Cl)ccc12 | 0.315 µM | 0.583 µM | 13.8 | 4.2 | 0.7 | 7.2 | 1.7 | 108% | 95.8% | 95.5% | 28.7% | 24.2% | 99.6% | 109% | 96.3% | 80.7% | 58.2% | 90.6% | 92.3% | 95.5% | 110% | 73.1% | 100% | 102% | 97.8% | 63.4% | 49.3% | 97.7% | 104% | 91% | 94.3% | 73.2% | – | – | – |
| Cc1ccc(C(=O)Nc2ccc(Oc3cc4cnn(C)c4cc3-c3cn[nH]c3)c(F)c2)c(=O)n1-c1ccc(F)cc1 | 1.43 µM | – | 8.3 | 1.8 | 5.1 | 2.6 | 2.5 | 102% | 110% | 97.4% | 75.5% | 15.6% | 101% | 95.5% | 98.8% | 96.9% | 69.9% | 92% | 91.9% | 101% | 70.7% | 65.3% | 103% | 99.6% | 96.7% | 92.1% | 68.1% | 98% | 94.9% | 102% | 99.3% | 53.8% | – | – | – |
| O=C(NCC1(N2CCN(c3ccccc3)CC2)CCOCC1)c1cccnc1Sc1ccccc1 | > 10 µM | – | 0 | 0 | 0 | – | 0 | 107% | 101% | 103% | 97.5% | 91.4% | 96.1% | 96.5% | 101% | 98.9% | 102% | 99.4% | 106% | 104% | 99.8% | 95% | – | – | – | – | – | 99.8% | 97.4% | 103% | 98.1% | 94.1% | > 10 µM | > 10 µM | > 10 µM |
| CC(=O)N1CCN(c2ccc(OC[C@@H]3CO[C@@](Cn4ccnc4)(c4ccc(Cl)cc4Cl)O3)cc2)CC1 (racemic) [ketoconazole] | > 10 µM | – | 0.3 | 0 | 0 | – | 0.3 | 112% | 96.1% | 111% | 102% | 83.3% | 98.3% | 101% | 99.3% | 103% | 95.3% | 97.1% | 90.6% | 96.3% | 96.3% | 96.9% | – | – | – | – | – | 91.9% | 110% | 95.1% | 104% | 82.6% | > 10 µM | > 10 µM | > 10 µM |
| N=C(Nc1ccc(I)cc1)NC1C2CC3CC(C2)CC1C3 (centres undefined) [IPAG] | 1.81 µM | – | 7.1 | 0 | 0.7 | 2.7 | 6.6 | 97.7% | 96% | 87.6% | 84.8% | 17% | 103% | 102% | 105% | 96.4% | 93.8% | 106% | 103% | 98.2% | 101% | 77.2% | 95.7% | 102% | 94.5% | 94.2% | 63.8% | 103% | 98.4% | 97.9% | 88.3% | 16.2% | > 10 µM | > 10 µM | 2.05 µM |
| CCCCCCCCCCCCCCCC(=O)OC[C@H](O)[C@H]1OC(=O)C(O)=C1O [L-ascorbyl-6-palmitate] | > 10 µM | – | 0 | 0 | 0 | – | 0 | 101% | 93.2% | 92.6% | 94.4% | 97.7% | 100% | 103% | 97.5% | 102% | 97.9% | 98.9% | 104% | 94.5% | 108% | 113% | – | – | – | – | – | 95.2% | 100% | 96.1% | 99.7% | 95% | > 10 µM | > 10 µM | > 10 µM |
| CC(C)CNc1nc(-c2cccc3ncccc23)cn2c(-c3ccc(C(=O)NC4CC4)cc3)cnc12 [Mps-BAY-2a] | 0.255 µM | – | 9.3 | 1.4 | 0 | 5.9 | 3.8 | 87.9% | 100% | 86% | 57.4% | 47.6% | 101% | 97.6% | 103% | 99.1% | 70.6% | 107% | 98.5% | 104% | 103% | 93% | 95.7% | 94.5% | 90.1% | 71.1% | 62.2% | 93.1% | 82.9% | 93.1% | 79.4% | 79.9% | – | > 10 µM | > 10 µM |
